# Experimental data reported in patent US20230278972A1, “SUBSTITUTED HALOALKYL SULFONANILIDE HERBICIDES” (FMC Corporation, priority 2020, published 2023).
# Experiments:
# Format in all cases: in vivo
# [1] = tested on: barnyardgrass (Echinochloa crus-galli); assay: Test A preemergence, barnyardgrass; details: Preemergence; for Barnyardgrass plant response rating: 125 g ai/ha, visual injury on 0 to 100 scale (0 no effect, 100 complete control), approximately 10 days; for Plant response rating, Barnyardgrass: 500 g ai/ha, 0 to 100 scale (0 no effect, 100 complete control)
# Description: (§1) Seeds of plant species selected from barnyardgrass (Echinochloa crus-galli), kochia (Bassia scoparia), ragweed (common ragweed, Ambrosia artemisiifolia), Ryegrass, Italian (Italian ryegrass, Lolium multiflorum), Foxtail, Giant (giant foxtail, Setaria faberi), and pigweed (Amaranthus retroflexus) were planted into a blend of loam soil and sand and treated preemergence with a directed soil spray using test chemicals formulated in a non-phytotoxic solvent mixture which included a surfactant. At the same time, plants selected from these weed species and also wheat (Triticum aestivum), corn (Zea mays), blackgrass (Alopecurus myosuroides), and galium (catchweed bedstraw, Galium aparine) were planted in pots containing the same blend of loam soil and sand and treated with postemergence applications of test chemicals formulated in the same manner. Plants ranged in height from 2 to 10 cm and were in the one- to two-leaf stage for the postemergence treatment. […] A dash (-) response means no test result.
# [2] = tested on: kochia (Bassia scoparia); assay: Test A preemergence, kochia; details: Preemergence; for Kochia plant response rating: 125 g ai/ha, visual injury on 0 to 100 scale (0 no effect, 100 complete control), approximately 10 days; for Plant response rating, Kochia: 500 g ai/ha, 0 to 100 scale (0 no effect, 100 complete control)
# Description: as §1
# [3] = tested on: ragweed (common ragweed, Ambrosia artemisiifolia); assay: Test A preemergence, ragweed; details: Preemergence; for Ragweed plant response rating: 125 g ai/ha, visual injury on 0 to 100 scale (0 no effect, 100 complete control), approximately 10 days; for Plant response rating, Ragweed: 500 g ai/ha, 0 to 100 scale (0 no effect, 100 complete control)
# Description: as §1
# [4] = tested on: Ryegrass, Italian (Italian ryegrass, Lolium multiflorum); assay: Test A preemergence, Ryegrass, Italian; details: Preemergence; for Ryegrass, Italian plant response rating: 125 g ai/ha, visual injury on 0 to 100 scale (0 no effect, 100 complete control), approximately 10 days; for Plant response rating, Ryegrass, Italian: 500 g ai/ha, 0 to 100 scale (0 no effect, 100 complete control)
# Description: as §1
# [5] = tested on: Foxtail, Giant (giant foxtail, Setaria faberi); assay: Test A preemergence, Foxtail, Giant; details: Preemergence; for Foxtail, Giant plant response rating: 125 g ai/ha, visual injury on 0 to 100 scale (0 no effect, 100 complete control), approximately 10 days; for Plant response rating, Foxtail, Giant: 500 g ai/ha, 0 to 100 scale (0 no effect, 100 complete control)
# Description: as §1
# [6] = tested on: barnyardgrass (Echinochloa crus-galli); assay: Test A postemergence, barnyardgrass; details: Postemergence, 0 to 100 scale (0 no effect, 100 complete control); for Plant response rating, Barnyardgrass: 125 g ai/ha; for Barnyardgrass plant response rating: 500 g ai/ha, visual injury vs untreated controls after approx. 10 days
# Description: as §1
# [7] = tested on: kochia (Bassia scoparia); assay: Test A postemergence, kochia; details: Postemergence, 0 to 100 scale (0 no effect, 100 complete control); for Plant response rating, Kochia: 125 g ai/ha; for Kochia plant response rating: 500 g ai/ha, visual injury vs untreated controls after approx. 10 days
# Description: as §1
# [8] = tested on: ragweed (common ragweed, Ambrosia artemisiifolia); assay: Test A postemergence, ragweed; details: Postemergence, 0 to 100 scale (0 no effect, 100 complete control); for Plant response rating, Ragweed: 125 g ai/ha; for Ragweed plant response rating: 500 g ai/ha, visual injury vs untreated controls after approx. 10 days
# Description: as §1
# [9] = tested on: Ryegrass, Italian (Italian ryegrass, Lolium multiflorum); assay: Test A postemergence, Ryegrass, Italian; details: Postemergence, 0 to 100 scale (0 no effect, 100 complete control); for Plant response rating, Ryegrass, Italian: 125 g ai/ha; for Ryegrass, Italian plant response rating: 500 g ai/ha, visual injury vs untreated controls after approx. 10 days
# Description: as §1
# [10] = tested on: Foxtail, Giant (giant foxtail, Setaria faberi); assay: Test A postemergence, Foxtail, Giant; details: Postemergence, 0 to 100 scale (0 no effect, 100 complete control); for Plant response rating, Foxtail, Giant: 125 g ai/ha; for Foxtail, Giant plant response rating: 500 g ai/ha, visual injury vs untreated controls after approx. 10 days
# Description: as §1
# [11] = tested on: pigweed (Amaranthus retroflexus); assay: Test A postemergence, pigweed; details: Postemergence, 0 to 100 scale (0 no effect, 100 complete control); for Plant response rating, Pigweed: 125 g ai/ha; for Pigweed plant response rating: 500 g ai/ha, visual injury vs untreated controls after approx. 10 days
# Description: as §1
# [12] = tested on: wheat (Triticum aestivum); assay: Test A postemergence, wheat; details: Postemergence, 0 to 100 scale (0 no effect, 100 complete control); for Plant response rating, Wheat: 125 g ai/ha; for Wheat plant response rating: 500 g ai/ha, visual injury vs untreated controls after approx. 10 days
# Description: as §1
# [13] = tested on: corn (Zea mays); assay: Test A postemergence, corn; details: Postemergence, 0 to 100 scale (0 no effect, 100 complete control); for Plant response rating, Corn: 125 g ai/ha; for Corn plant response rating: 500 g ai/ha, visual injury vs untreated controls after approx. 10 days
# Description: as §1
# [14] = tested on: blackgrass (Alopecurus myosuroides); assay: Test A postemergence, blackgrass; details: Postemergence, 0 to 100 scale (0 no effect, 100 complete control); for Plant response rating, Blackgrass: 125 g ai/ha; for Blackgrass plant response rating: 500 g ai/ha, visual injury vs untreated controls after approx. 10 days
# Description: as §1
# [15] = tested on: galium (catchweed bedstraw, Galium aparine); assay: Test A postemergence, galium; details: Postemergence, 0 to 100 scale (0 no effect, 100 complete control); for Plant response rating, Galium: 125 g ai/ha; for Galium plant response rating: 500 g ai/ha, visual injury vs untreated controls after approx. 10 days
# Description: as §1
Compound,Barnyardgrass plant response rating [1],"Plant response rating, Barnyardgrass [1]",Kochia plant response rating [2],"Plant response rating, Kochia [2]",Ragweed plant response rating [3],"Plant response rating, Ragweed [3]","Ryegrass, Italian plant response rating [4]","Plant response rating, Ryegrass, Italian [4]","Foxtail, Giant plant response rating [5]","Plant response rating, Foxtail, Giant [5]",Barnyardgrass plant response rating [6],Kochia plant response rating [7],Ragweed plant response rating [8],"Ryegrass, Italian plant response rating [9]","Foxtail, Giant plant response rating [10]",Pigweed plant response rating [11],Wheat plant response rating [12],Corn plant response rating [13],Blackgrass plant response rating [14],Galium plant response rating [15],also measured
Cc1cc(C)c(C2=NOC(C(C)(C)C)C2)cc1NS(=O)(=O)C(F)(F)F (stereo not drawn) [Compound 108],70,100,80,90,20,60,90,100,80,100,90,80,80,70,30,60,70,50,50,90,"Plant response rating, Barnyardgrass ([6]; visual injury approx. 10 days): 20; Plant response rating, Kochia ([7]; visual injury approx. 10 days): 30; Plant response rating, Ragweed ([8]; visual injury approx. 10 days): 40; Plant response rating, Ryegrass, Italian ([9]; visual injury approx. 10 days): 0; Plant response rating, Foxtail, Giant ([10]; visual injury approx. 10 days): 0; Plant response rating, Pigweed ([11]; visual injury approx. 10 days): 0; Plant response rating, Wheat ([12]; visual injury approx. 10 days): 30; Plant response rating, Corn ([13]; visual injury approx. 10 days): 0; Plant response rating, Blackgrass ([14]; visual injury approx. 10 days): 0; Plant response rating, Galium ([15]; visual injury approx. 10 days): 70"
Cc1cc(C)c(N(S(=O)(=O)C(F)(F)F)S(=O)(=O)C(F)(F)F)cc1C1=NOC2(CCSCC2)C1 [Compound 114],50,80,30,70,0,10,70,90,90,100,70,40,30,40,80,80,60,50,50,90,"Plant response rating, Barnyardgrass ([6]; visual injury approx. 10 days): 20; Plant response rating, Kochia ([7]; visual injury approx. 10 days): 10; Plant response rating, Ragweed ([8]; visual injury approx. 10 days): 0; Plant response rating, Ryegrass, Italian ([9]; visual injury approx. 10 days): 40; Plant response rating, Foxtail, Giant ([10]; visual injury approx. 10 days): 50; Plant response rating, Pigweed ([11]; visual injury approx. 10 days): 60; Plant response rating, Wheat ([12]; visual injury approx. 10 days): 60; Plant response rating, Corn ([13]; visual injury approx. 10 days): 20; Plant response rating, Blackgrass ([14]; visual injury approx. 10 days): 30; Plant response rating, Galium ([15]; visual injury approx. 10 days): 90"
Cc1c(NS(=O)(=O)C(F)(F)F)cc(C(=O)N2CC(C)OC(C)C2)c(C)c1F (stereo not drawn) [Compound 116],30,90,90,100,10,100,40,90,60,90,90,70,90,80,80,80,80,80,40,90,"Plant response rating, Barnyardgrass ([6]; visual injury approx. 10 days): 50; Plant response rating, Kochia ([7]; visual injury approx. 10 days): 30; Plant response rating, Ragweed ([8]; visual injury approx. 10 days): 90; Plant response rating, Ryegrass, Italian ([9]; visual injury approx. 10 days): 60; Plant response rating, Foxtail, Giant ([10]; visual injury approx. 10 days): 0; Plant response rating, Pigweed ([11]; visual injury approx. 10 days): 60; Plant response rating, Wheat ([12]; visual injury approx. 10 days): 60; Plant response rating, Corn ([13]; visual injury approx. 10 days): 0; Plant response rating, Blackgrass ([14]; visual injury approx. 10 days): 0; Plant response rating, Galium ([15]; visual injury approx. 10 days): 90"
COC1CCCN(C(=O)c2cc(NS(=O)(=O)C(F)(F)F)c(Cl)cc2C)C1 (stereo not drawn) [Compound 146],90,100,80,80,60,70,90,100,100,100,80,50,90,70,90,80,60,20,20,90,"Plant response rating, Barnyardgrass [6]: 40; Plant response rating, Kochia [7]: 40; Plant response rating, Ragweed [8]: 60; Plant response rating, Ryegrass, Italian [9]: 30; Plant response rating, Foxtail, Giant [10]: 20; Plant response rating, Pigweed [11]: 50; Plant response rating, Wheat [12]: 50; Plant response rating, Corn [13]: 10; Plant response rating, Blackgrass [14]: 0; Plant response rating, Galium [15]: 90"
C#CCN(C)C(=O)c1cc(N(S(=O)(=O)C(F)(F)F)S(=O)(=O)C(F)(F)F)c(C)c(F)c1C [Compound 147],90,100,70,90,90,90,90,100,90,100,90,70,90,70,90,90,60,80,30,90,"Plant response rating, Barnyardgrass [6]: 90; Plant response rating, Kochia [7]: 50; Plant response rating, Ragweed [8]: 90; Plant response rating, Ryegrass, Italian [9]: 30; Plant response rating, Foxtail, Giant [10]: 70; Plant response rating, Pigweed [11]: 70; Plant response rating, Wheat [12]: 30; Plant response rating, Corn [13]: 10; Plant response rating, Blackgrass [14]: 0; Plant response rating, Galium [15]: 80"
Cc1cc(C)c(C2=NOC3CCCC23)cc1NS(=O)(=O)C(F)(F)F (stereo not drawn) [Compound 164],90,100,100,100,90,100,80,100,90,100,90,90,90,90,40,90,70,80,40,90,"Plant response rating, Barnyardgrass [6]: 80; Plant response rating, Kochia [7]: 60; Plant response rating, Ragweed [8]: 70; Plant response rating, Ryegrass, Italian [9]: 80; Plant response rating, Foxtail, Giant [10]: 0; Plant response rating, Pigweed [11]: 70; Plant response rating, Wheat [12]: 60; Plant response rating, Corn [13]: 0; Plant response rating, Blackgrass [14]: 0; Plant response rating, Galium [15]: 80"
Cc1cc(C(F)(F)F)c(NS(=O)(=O)C(F)(F)F)cc1C(=O)N1CCCCC1 [Compound 165],20,30,90,100,50,100,50,70,80,90,30,60,60,30,0,90,0,0,10,90,"Plant response rating, Barnyardgrass [6]: 0; Plant response rating, Kochia [7]: 10; Plant response rating, Ragweed [8]: 0; Plant response rating, Ryegrass, Italian [9]: 0; Plant response rating, Foxtail, Giant [10]: 0; Plant response rating, Pigweed [11]: 60; Plant response rating, Wheat [12]: 0; Plant response rating, Corn [13]: 0; Plant response rating, Blackgrass [14]: 0; Plant response rating, Galium [15]: 80"
